Literature values, collected in the CATMoS acute toxicity set (Mansouri et al. 2021).

Assay: rat acute oral toxicity
Conditions: in vivo
Description: […]The data set underlying the modeling effort for this project was initially compiled by NICEATM and U.S. EPA’s CCTE. Briefly, LD50 data were collected from rat acute oral systemic toxicity tests, including limit tests, ranges/confidence intervals, and discrete LD50 values. The full data set included 21,200 LD50 entries for 15,688 substances. […] Data were reviewed to ensure that LD50 values with obvious errors in the extracted data such as unit conversion errors (e.g., comma and decimal separator misplacements) were either fixed or removed. After this review, 16,209 LD50 values remained. Many of the chemicals represented had multiple LD50 entries, requiring that a single representative value per Chemical Abstracts Service Registry Number (CASRN) identifier be defined to facilitate modeling efforts. Based on ATWG feedback and to define the representative LD50 as a protective value while accounting for the distribution across multiple LD50s, the median of the lowest quartile was computed using only discrete LD50 values (omitting limit test data and range and confidence interval data). A detailed summary of the data compilation is available online on the NICEATM webpage dedicated to the collaborative modeling project (NTP 2020).
[…][…] For categorical designations, limit test and range/confidence interval LD50 data were integrated wherever possible. As such, the number of chemicals with end point values/calls varies across the modeling end points (Table 3) based on whether chemicals had representative LD50 values and/or other data. If a chemical had both, the representative value was used to determine categorical calls rather than limit test data. Some data were useable only for certain end points and categories depending on the thresholds. For example, ranges that spanned multiple hazard categories were considered only for the binary (very toxic/nontoxic) end points and omitted from rendering a determination for hazard category assignment.
[…]The final data set comprising 11,992 chemicals was split into training and evaluation sets […], respectively. This process was performed semirandomly by ordering chemicals based on the five end points (categorical and continuous LD50 values) and partitioning every fourth record into the evaluation set accordingly. This approach was taken to ensure an equivalent distribution of the LD50 values and the different hazard categories between the training and the evaluation sets without supervised sampling of the chemicals based on structures (Figure 1A). The sources of the chemical structures were also kept equivalent between the two sets, with chemical structures obtained from DSSTox, being the highest quality, representing over 75% of each set (Figure 1B).

Going from `CC(C=O)Cc1ccc(C(C)(C)C)cc1` (configuration not stated) to `CC(c1ccccc1)C(C)(C)N` (configuration not stated), the LD50 falls from 1390 mg/kg to 180 mg/kg (7.7-fold).

`Clc1ccc(COC(Cn2ccnc2)c2ccc(Cl)cc2Cl)cc1` (configuration not stated) and `O=C1c2ccccc2CCC1CNCCc1ccc(O)cc1` (configuration not stated) are within 1.5-fold of each other in LD50: 668 mg/kg for the first, 650 mg/kg for the second.

First: C=C1/C(=C\C=C2/CCC[C@]3(C)[C@@H]([C@H](C)/C=C/[C@H](C)C(C)C)CC[C@@H]23)C[C@@H](O)C[C@@H]1O
Second: O=C(O[C@H]1C[C@H]2CC[C@@H](C1)[N+]21CCCC1)C(O)(c1ccccc1)c1ccccc1
The LD50 of the first is 430-fold lower: 3.5 mg/kg for the first, 1510 mg/kg for the second.

Compared with `CC(C)=CCC(=O)c1ccoc1`, `COC(=O)c1ccc(NC(C)=O)o1` is 48-fold higher in LD50: 25 mg/kg for the first, 1200 mg/kg for the second.

Compared with `CCOP(=O)(OCC)Oc1ccc([N+](=O)[O-])c(Cl)c1`, `CCOP(=S)(OCC)Oc1cc(C)nc2ccccc12` is 10-fold higher in LD50: 5 mg/kg for the first, 50 mg/kg for the second.

Compared with `CCC(=O)C1(c2cccc(O)c2)CCN(C)CC1`, `CC(=O)c1ccc(O)cc1O` is 13-fold higher in LD50: 215 mg/kg for the first, 2830 mg/kg for the second.

Going from `CCCCN1CCOCC1` to `COP(=S)(OC)SCC(=O)N1CCOCC1`, the LD50 falls from 338 mg/kg to 190 mg/kg (1.8-fold).

First: NC(CO)(CO)CO
Second: C=CCOCCO
The LD50 of the first is 1.9-fold higher: 5900 mg/kg for the first, 3050 mg/kg for the second.

Compared with `CC(C)Cc1ccc2ccccc2n1`, `Cc1cccc2ccccc12` is 1.8-fold higher in LD50: 1020 mg/kg for the first, 1840 mg/kg for the second.

Compared with `CCCCOc1ccc(CC(=O)NO)cc1`, `CCCCCCCCCc1cccc(OCCOCC(=O)O)c1` is 3.8-fold lower in LD50: 3370 mg/kg for the first, 880 mg/kg for the second.

`CC1=C(CC(=O)O)c2cc(F)ccc2/C1=C\c1ccc(S(C)=O)cc1` (configuration not stated) and `O=C1C(O)=C(CC=C(Cl)Cl)C(=O)c2ccccc21` are within 1.5-fold of each other in LD50: 264 mg/kg for the first, 281 mg/kg for the second.

`O=Cc1ccc(Cl)cc1` and `CCn1c(=O)oc2ccc(Cl)cc21` are within 1.5-fold of each other in LD50: 1580 mg/kg for the first, 1350 mg/kg for the second.

First: CCCCC(CC)COC(C[n+]1ccccc1)c1cccc(C2CCCCC2)c1 (configuration not stated)
Second: COC(=O)C1=C(C)NC(C)=C(C(=O)O[C@@H]2CCCN(Cc3ccccc3)C2)[C@@H]1c1cccc([N+](=O)[O-])c1 (racemic)
The LD50 of the first is 2.9-fold higher: 250 mg/kg for the first, 87.6 mg/kg for the second.

Compared with `Nc1ccc(Oc2ccc(C(c3ccc(Oc4ccc(N)cc4)cc3)(C(F)(F)F)C(F)(F)F)cc2)cc1`, `COc1ccc(NS(=O)(=O)c2ccc(N)cc2)nn1` is 2-fold higher in LD50: 1340 mg/kg for the first, 2740 mg/kg for the second.

First: CO[Si](CCl)(OC)OC
Second: CON(C(=O)CSP(=S)(OC)OC)C(C)C
The LD50 of the first is 1.9-fold higher: 500 mg/kg for the first, 260 mg/kg for the second.

`CC(C)(C)CC(C)(C)SSSSCC(C)(CC(C)(C)C)SSSSC(C)(C)CC(C)(C)C` (configuration not stated) and `CCCOC(=O)c1ccc(C(=O)OCCC)nc1` are within 1.5-fold of each other in LD50: 3640 mg/kg for the first, 5230 mg/kg for the second.

Compared with `CC1C(=O)OC2CCN3CC=C(COC(=O)C(C)(O)C1(C)O)C23` (configuration not stated), `CNC(=O)Oc1ccc2c(c1)[C@]1(C)CCN(C)[C@@H]1N2C` is 10-fold lower in LD50: 45.5 mg/kg for the first, 4.5 mg/kg for the second.

Going from `COc1ccc(C)cc1NC(C)=O` to `CCOc1ccccc1OCC`, the LD50 rises from 2240 mg/kg to 7250 mg/kg (3.2-fold).

Compared with `COc1cc(-n2ccnc2)ncn1`, `Nc1nc2cc(F)ccc2o1` is 2.5-fold higher in LD50: 400 mg/kg for the first, 1000 mg/kg for the second.

Compared with `CCON(CC)N=O`, `C=C(OP(=O)(OCC)OCC)P(=O)(OC)OC` is 5.8-fold lower in LD50: 1000 mg/kg for the first, 173 mg/kg for the second.

First: O=[N+]([O-])C(Br)Br
Second: OC(CBr)C(O)C(O)C(O)CBr (configuration not stated)
The LD50 of the first is 12-fold lower: 86 mg/kg for the first, 1000 mg/kg for the second.

First: CC(C=CC=C(C)C(=O)OC1OC(COC2OC(CO)C(O)C(O)C2O)C(O)C(O)C1O)=CC=CC=C(C)C=CC=C(C)C(=O)OC1OC(COC2OC(CO)C(O)C(O)C2O)C(O)C(O)C1O (configuration not stated)
Second: CC(C)OC(=O)C(C(=O)OC(C)C)=C1SC=CS1
The LD50 of the first is 1.5-fold higher: 3160 mg/kg for the first, 2060 mg/kg for the second.

First: NS(=O)(=O)c1cc2c(cc1Cl)NC(CC1CCCC1)NS2(=O)=O (configuration not stated)
Second: O=C1c2ccccc2S(=O)(=O)N1CCCCNC[C@H]1CCc2ccccc2O1
The LD50 of the first is 3.1-fold higher: 1000 mg/kg for the first, 324 mg/kg for the second.

Compared with `N#CC(Cl)(Cl)C#N`, `CC(C)=CCl` is 34-fold higher in LD50: 130 mg/kg for the first, 4460 mg/kg for the second.

Going from `Nc1cc(N)cc(C(F)(F)F)c1` to `O=c1[nH]c2ccc(Br)cc2o1`, the LD50 rises from 380 mg/kg to 1000 mg/kg (2.6-fold).

Compared with `C/C=C1\[C@H]2C=C(C)C[C@]1(N)c1ccc(=O)[nH]c1C2`, `NCCC=C1c2ccccc2COc2ccccc21` is 64-fold higher in LD50: 15 mg/kg for the first, 960 mg/kg for the second.

Compared with `CC1CNCCN1` (configuration not stated), `CCCCCOC(=S)S` is 2-fold lower in LD50: 2030 mg/kg for the first, 1000 mg/kg for the second.

Going from `CCP(c1ccccc1)c1ccccc1` to `CCC(=O)C(CC(C)N(C)C)(c1ccccc1)c1ccccc1` (configuration not stated), the LD50 falls from 500 mg/kg to 86 mg/kg (5.8-fold).

In the case of `O=COCCc1ccccc1`, the LD50 is given as 3220 mg/kg.
